Reference: patent US10487091B2, “Activators of autophagic flux and phospholipase D and clearance of protein aggregates including tau and treatment of proteinopathies” (THE TRUSTEES OF COLUMBIA UNIVERSITY IN THE CITY OF NEW YORK, priority 2015, dated 2019)
Like-named read-outs stand apart in the source and are kept apart here.

Experiments:
[1] = Cytotoxicity LC50 (XTT assay for cell viability); format: cell-based; conditions: human, transfected HEK 293 cells that express mKate2-tagged Tau;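 further: cells carry doxycycline-repressible Tau, induced by withdrawing doxycycline for 72 h before compound exposure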
[2] = tested on: Tau/aggregate; assay: Tau/aggregate inhibition in HEK 293 cells expressing mKate2-tagged Tau; format: cell-based, Human; conditions: for inhibition at 1 µM: Homo sapiens, HEK293; for % Inhibition Tau/aggregate: @ 2 μM
Experimental: (§1) 1) HEK cells with tet-regulated expression of mKate2 tagged Tau were grown in DMEM medium (Dulbecco's Modified Eagle's Medium) containing 0.5 μg/mL doxycycline (Dox)(MP-Bio#198955), after 3-5 days Dox was removed by washing the cells twice with sterile phosphate buffered saline (PBS; Invitrogen#14190-144), cells were left in DMEM without Dox for 72 hours (to further clear remaining Dox in cells).
(§2) The test compounds (along with CytoID™ dye and Hoechst stain) were added to the cells and incubated for 3 hours. Reference compounds were also used in each plate, Rapamycin was used for autophagy induction and chloroquine was used for lysosomal inhibition. After 3 hours test compound was aspirated off and kept. Cells were then washed and read using a fluorescence plate reader. Hoescht, Cyto-ID™ and mKate2 were measured using 3 distinct wavelengths on the plate reader. The Hoescht measurement allowed normalisation of results across wells. After reading, test compound was re-added and the cells are left for a further 21 hours. At the 24 hour time point cells were once again washed and plates read using the fluorescence plate reader.
(§3) Proteostat™ assay was used to detect aggresomes via measurement of p62. Aggresomes are inclusion bodies that form when the ubiquitin-proteasome machinery is overwhelmed with aggregation-prone proteins. Typically, an aggresome forms in response to some cellular stress, such as hyperthermia, viral infection, or exposure to reactive oxygen species. Aggresomes may provide a cytoprotective function by sequestering the toxic, aggregated proteins and may also facilitate their ultimate elimination from cells by autophagy. Following the final plate read described in the Cyto-ID™ assay described above, Proteostat™ detection reagent was added to every well and the plate was incubated for 15 minutes. Following this incubation, the plate was read by fluorescence plate reader at the specified wavelength. After this plate read, the cells were fixed by incubating with warm paraformaldehyde for 8 minutes. The fixed cells were then read by plate reader as before.
Western blot assays were performed to determine protein changes in Tau and p62. Cells were cultured as above and incubated with test compounds for 24 h. Following test compound incubation, the test compound was aspirated off and cells were washed before harvesting. Cells were spun at a low speed and supernatant was aspirated to leave the cell pellet. The cell pellet was then homogenized in buffer, centrifuged at high speed, and the supernatant aspirated and further separated into total fraction and aggregate fraction allowing quantification of soluble and insoluble proteins. Western blots were run on the samples, gels transferred to nitrocellulose and incubated with antibodies for Tau and p62. After incubation with secondary antibodies for detection, the bands of protein were quantified by chemiluminescence.

[3] = tested on: phospholipase D (PLD); assay: PLD assay (conversion of phospholipids to phosphatidylethanols in presence of ethanol, LC/MS); format: cell-based, mice; set-up: key: NC—no change; conditions: PLD activation, fold; 24 hours incubation
Experimental: Cells were incubated with test compound for 24 hours. 25 minutes prior to harvest at 24 hours, 3% ethanol solution was added to the wells to catalyze cleavage of the phospholipid. Cells were then placed on ice, washed and harvested. The harvested cells were centrifuged and the supernatant was aspirated and the pellet kept. The pellet was resuspended and chloroform/methanol lipid extraction was performed. The sample was centrifuged and the organic layer was separated, dried under nitrogen and stored at −80° C. On the day of analysis, samples were resuspended and analysed by LC/MS. All phosphatidylethanol species (PEtOH32-40:0-6:16/18:0/1) were combined together and represented as total lipid content (all lipid species).
The assay was run in e18 primary cortical neurons from PLD1 or PLD2 KO mice cultured for 14 days. Alternatively, the assay can be run in the cells described above in the presence of excess PLD1 or PLD2 inhibitor to preclude that particular action from contributing to the effect of the drug.
4) On the day of experiment, cells were washed in warmed HBSS twice before media containing test compound (n=3 per compound per dose), inhibitor (355 nM ML298 or 50 nM VU0150669), or vehicle are added to the wells (1.5 mL in 6 well, 600 μL in 12 well). Plates were incubated for 24 hours at 37° C. with 5% CO2.
5) 25 minutes prior to harvest, a 165 μL of a 3% ethanol solution was added to each well.
PLD activation converts phospholipids to phosphatidylethanols in the presence of ethanol. […] FIPI is a non-competitive inhibitor of PLD activity and was used as a negative control.

[4] = tested on: Autophagy Markers; assay: Autophagy markers (Cyto-ID assay) in HEK 293 cells; format: cell-based, Human
Experimental: The dye used in the kit prevents its accumulation within lysosomes, but enables labelling of vacuoles associated with the autophagy pathway using the LC3 biomarker.
as §2
2) Test samples were prepared in warm FluoroBrite™ DMEM and with 10% FBS and 1% NEAA (FB-DMEM). Rapamycin 200 nM (Enzo #BML-A275-0025) was used for autophagy induction and […] chloroquine was used for lysosomal inhibition (bafilomycin or similar compounds were not used as they give a false negative result in the assay). Dimethyl Sulfoxide 1:1000 (DMSO; Fisher #BP231-100) was used as control. Autophagosome marker Cyto ID™ (1:500; Enzo #ENZ-51031-k200) and Hoechst (1:200) was added to these test sample preparations before treating the cells.
7) At 24 hours post reaction all medium was aspirated and the plate was washed 3 times with warm FB-DMEM, and read again for Hoescht (Ex=355 nm Em=446 nm), CytoID™ (Ex=463 nm; Em=534 nm) and mKate2 (Ex=575 nm; Em=630 nm) in 80 μl of FB-DMEM.

[5] = tested on: aggregates (Proteostat); assay: Proteostat protein aggregation assay EC50; format: cell-based; conditions: Homo sapiens; 50% reduction of Proteostat levels (fluorescent marker of aggregates)
Description: as §3
8) Detection solution was prepared by adding 10 μl Proteostat™ detection reagent (ENZ-51023-KP002) and 200 μL of 10× assay buffer into 1790 μL water and mixing well.
9) 20 μL was added per well (each well had 80 μl of Fluorobrite™ media with no FBS) and incubated in the dark for 15 min at room temperature.
10) Fluorescence for Proteostat™ (Ex=550 nm; Em=600 nm) was then read.

[6] = tested on: mKate2 tagged Tau; assay: Tau-mKate2 fluorescence EC50; format: cell-based; conditions: Homo sapiens; 50% reduction of mKate2 fluorescence (tau tag)
Experimental: as §1
as §2, with “After 3 hours test compound was aspirated off and kept.” left out, “The Hoescht measurement allowed normalisation of results across wells.” left out
5) Treatment plate was then washed quickly 3 times with warm FB-DMEM (100 μL/well). […] At this point, the plate was ready for reading. See details in Reading Plate section. Hoescht was read at Excitation wavelength (Ex)=355 nm & Emission wavelength (Em)=446 nm. mKate2 was read at Ex=575 nm & Em=630 nm. Cyto-ID™ was read at Ex=463 nm & Em=534 nm. […]

Row | Compound | CC50 ([1]; read-out: Cyto-toxixity LC50) [µM] | inhibition at 1 µM [2] [%] | PLD [3] | % Increase Autophagy Markers [4] [%] | % Inhibition Tau/aggregate [2] | % Increase Autophagy Markers ([4]; @ 2 μM) | CC50 ([1]; XTT assay, 200 = upper concentration limit tested, read-out: LC50 (the source's name)) [µM] | EC50 [5] [nM] | EC50 [6] [nM]
1 | Fc1ccc2ncnc(SC3CCCC3)c2c1 [WHYKD15] | > 100 | 65 | 3.6 X | 40 |  |  |  |  | 
2 | O=c1[nH]cnc2ccc(F)cc12 [WHYKD24] | > 100 | 30 |  | 15 |  |  |  |  | 
3 | Oc1ccc(CCNc2ncnc3scnc23)cc1 [WHYKD2] | > 100 |  |  |  | No Effect @ 2 μM | No Effect @ 2 μM |  |  | 
4 | Fc1ccc2ncnc(SC3CC4CCC3C4)c2c1 (stereo not drawn) [WHYKD16] | > 100 |  |  |  | No Effect @ 2 μM | No Effect @ 2 μM |  |  | 
5 | COC(=O)CC12CC3CC(C1)CC(Sc1ncnc4ccc(F)cc14)(C3)C2 [WHYKD18] | > 100 |  |  |  | No Effect @ 2 μM | No Effect @ 2 μM |  |  | 
6 | Cn1nnnc1Sc1ncnc2ccccc12 [WHYKD6] | > 100 |  |  |  | No Effect @ 2 μM | No Effect @ 2 μM |  |  | 
7 | CC1(Sc2ncnc3ccc(F)cc23)CCC2CC1C2(C)C (stereo not drawn) [WHYKD13] | > 100 |  |  |  | No Effect @ 2 μM | No Effect @ 2 μM |  |  | 
8 | Cn1nnnc1Sc1ccnc2ccc(F)cc12 [WHYKD11] | > 100 |  |  |  | No Effect @ 2 μM | No Effect @ 2 μM |  |  | 
9 | Cn1nnnc1Sc1ncnc2ccc(Cl)cc12 [WHYKD7] | > 100 |  |  |  | No Effect @ 2 μM | No Effect @ 2 μM |  |  | 
10 | Fc1ccc2ncnc(Cl)c2c1 [WHYKD9] | > 100 |  |  |  | No Effect @ 2 μM | No Effect @ 2 μM |  |  | 
11 | Cn1nnnc1Sc1ncnc2ccc(Br)cc12 [WHYKD3] | > 100 |  | NC |  | No Effect @ 2 μM | No Effect @ 2 μM |  |  | 
12 | Fc1ccc2ncnc(SC34CC5CC(CC(C5)C3)C4)c2c1 [WHYKD14] | > 100 |  |  |  | No Effect @ 2 μM | No Effect @ 2 μM |  |  | 
13 | Oc1ccc(CCNc2ncnc3ccsc23)cc1 [WHYKD23] | > 100 |  |  |  | No Effect @ 2 μM | No Effect @ 2 μM |  |  | 
14 | Oc1ccc(CCNc2ncnc3ncsc23)cc1 [WHYKD21] | > 100 |  |  |  | No Effect @ 2 μM | No Effect @ 2 μM |  |  | 
15 | Cn1nnnc1Sc1ncnc2scnc12 [WHYKD1] | > 100 |  | NC |  | No Effect @ 2 μM | No Effect @ 2 μM |  |  | 
16 | Oc1ccc(CCNc2ncnc3sccc23)cc1 [WHYKD22] | > 100 |  |  |  | No Effect @ 2 μM | No Effect @ 2 μM |  |  | 
17 | Cn1nnnc1Sc1ccnc2ccccc12 [WHYKD10] | > 100 |  |  |  | No Effect @ 2 μM | No Effect @ 2 μM |  |  | 
18 | Cn1nnnc1Sc1ncnc2ccc(F)cc12 [WHYKD5] | > 100 | 35 | 1.7X | 20 |  |  |  |  | 
19 | Fc1ccc2ncnc(SC3CCCCC3)c2c1 [WHYKD12] | > 100 | 60 | 3.4 X | 40 |  |  |  |  | 
20 | Cn1nnnc1Sc1ncnc2ccc(-c3cccc4ccccc34)cc12 [WHYKD4] | > 100 |  |  |  | No Effect @ 2 μM | No Effect @ 2 μM |  |  | 
21 | Fc1ccc2ncnc(SC3Cc4ccccc4C3)c2c1 [WHYKD20] | > 100 |  |  |  | No Effect @ 2 μM | No Effect @ 2 μM |  |  | 
22 | Fc1ccc2ncnc(SC3CCOCC3)c2c1 [WHYKD19] | > 100 | 55 | 3.5 X | 35 |  |  |  |  | 
23 | Ic1ccc2ncnc(SC3CCCC3)c2c1 [WHYKD30] |  |  |  |  |  |  | > 200 | 2510 | 1110
